Among the data in ChEMBL document CHEMBL5291721, “A preclinical secondary pharmacology resource illuminates target-adverse drug reaction associations of marketed drugs” (Nat Commun, 2023) are AC50 values, retold here.

One assay has as its target Bile salt export pump (Homo sapiens, UniProt O95342). The assay is classed as functional.
In assay [1] the target is T1, Alpha-2A adrenergic receptor (Homo sapiens, UniProt P08913).
T1 sequence (P08913 whole entry): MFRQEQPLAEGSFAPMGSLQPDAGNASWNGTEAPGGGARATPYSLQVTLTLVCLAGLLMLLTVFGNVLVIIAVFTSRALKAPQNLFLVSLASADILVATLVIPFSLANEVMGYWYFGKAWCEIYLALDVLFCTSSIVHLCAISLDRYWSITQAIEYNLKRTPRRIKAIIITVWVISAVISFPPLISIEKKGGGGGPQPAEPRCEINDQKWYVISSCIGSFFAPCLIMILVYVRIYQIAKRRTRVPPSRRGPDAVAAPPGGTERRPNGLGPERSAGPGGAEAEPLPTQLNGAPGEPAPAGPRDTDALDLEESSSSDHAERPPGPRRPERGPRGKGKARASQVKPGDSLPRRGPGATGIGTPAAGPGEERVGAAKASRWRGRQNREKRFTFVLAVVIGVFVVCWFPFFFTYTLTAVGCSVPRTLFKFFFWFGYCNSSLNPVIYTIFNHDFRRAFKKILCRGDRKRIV

Assay [2] addresses T2, Muscarinic acetylcholine receptor M2 (Homo sapiens, UniProt P08172).
T2 sequence (P08172 whole entry): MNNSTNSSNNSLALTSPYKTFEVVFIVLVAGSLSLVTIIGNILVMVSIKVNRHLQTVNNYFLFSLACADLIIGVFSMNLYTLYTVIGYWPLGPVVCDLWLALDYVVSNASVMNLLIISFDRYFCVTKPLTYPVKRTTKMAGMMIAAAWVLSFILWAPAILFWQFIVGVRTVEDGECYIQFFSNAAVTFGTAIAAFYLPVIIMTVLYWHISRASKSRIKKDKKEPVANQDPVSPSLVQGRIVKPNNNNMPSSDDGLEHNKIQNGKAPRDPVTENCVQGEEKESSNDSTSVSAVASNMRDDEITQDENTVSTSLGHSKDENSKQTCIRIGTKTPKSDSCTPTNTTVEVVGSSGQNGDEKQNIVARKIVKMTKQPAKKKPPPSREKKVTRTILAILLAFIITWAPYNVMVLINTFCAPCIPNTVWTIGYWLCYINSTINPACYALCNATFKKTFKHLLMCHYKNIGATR

For another assay, the target named is D(1A) dopamine receptor (Homo sapiens, UniProt P21728).
Another assay concerns the target D(3) dopamine receptor (Homo sapiens, UniProt P35462).
In the next assay the target is Prothrombin (Homo sapiens, UniProt P00734). The assay is classed as functional.
The target of assay [3] is T3, 5-hydroxytryptamine receptor 1A (Homo sapiens, UniProt P08908).
T3 sequence (P08908 whole entry): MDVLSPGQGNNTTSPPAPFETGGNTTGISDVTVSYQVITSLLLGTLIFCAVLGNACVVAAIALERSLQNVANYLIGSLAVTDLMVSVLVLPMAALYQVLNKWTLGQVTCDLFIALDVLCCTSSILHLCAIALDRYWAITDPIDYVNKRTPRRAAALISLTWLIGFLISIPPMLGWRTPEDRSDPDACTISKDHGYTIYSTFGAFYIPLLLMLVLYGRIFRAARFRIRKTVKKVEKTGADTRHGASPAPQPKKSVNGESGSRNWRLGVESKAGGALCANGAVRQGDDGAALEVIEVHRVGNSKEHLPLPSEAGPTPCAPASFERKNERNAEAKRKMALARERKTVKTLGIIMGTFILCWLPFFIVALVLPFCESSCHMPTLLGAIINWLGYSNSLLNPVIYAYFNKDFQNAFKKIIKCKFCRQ

Assay [4] deals with 5-hydroxytryptamine receptor 2B (Homo sapiens, UniProt P41595). The assay is classed as functional, cell-based.
In assay [5] the target is T4, Amine oxidase [flavin-containing] A (Homo sapiens, UniProt P21397).
T4 sequence (P21397 whole entry): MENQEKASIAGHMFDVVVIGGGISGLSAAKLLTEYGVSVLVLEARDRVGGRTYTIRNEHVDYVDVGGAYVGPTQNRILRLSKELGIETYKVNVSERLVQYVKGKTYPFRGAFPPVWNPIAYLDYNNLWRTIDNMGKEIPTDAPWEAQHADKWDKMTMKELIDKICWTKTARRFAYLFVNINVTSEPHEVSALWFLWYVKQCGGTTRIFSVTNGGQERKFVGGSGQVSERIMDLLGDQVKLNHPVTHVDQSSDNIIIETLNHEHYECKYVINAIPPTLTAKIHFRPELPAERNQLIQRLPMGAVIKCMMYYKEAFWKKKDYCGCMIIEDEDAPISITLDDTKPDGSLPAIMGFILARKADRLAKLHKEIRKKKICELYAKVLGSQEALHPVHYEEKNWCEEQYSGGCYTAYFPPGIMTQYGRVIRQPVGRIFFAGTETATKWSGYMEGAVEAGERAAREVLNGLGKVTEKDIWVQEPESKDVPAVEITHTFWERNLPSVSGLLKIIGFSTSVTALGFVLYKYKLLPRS
It is filed as functional.

The target of assay [6] is cGMP-inhibited 3',5'-cyclic phosphodiesterase 3A (Homo sapiens, UniProt Q14432). The assay is classed as functional.
Assay [7] concerns the target 3',5'-cyclic-AMP phosphodiesterase 4A (Homo sapiens, UniProt P27815). It is filed as functional.
The target in assay [8] is Prostaglandin G/H synthase 1 (Homo sapiens, UniProt P23219). It is filed as functional.
The target in assay [9] is Sodium-dependent noradrenaline transporter (Homo sapiens, UniProt P23975).
Assay [10] has as its target Sodium-dependent dopamine transporter (Homo sapiens, UniProt Q01959).
Assay [11] addresses T5, Thromboxane A2 receptor (Homo sapiens, UniProt P21731).
T5 sequence (P21731 whole entry): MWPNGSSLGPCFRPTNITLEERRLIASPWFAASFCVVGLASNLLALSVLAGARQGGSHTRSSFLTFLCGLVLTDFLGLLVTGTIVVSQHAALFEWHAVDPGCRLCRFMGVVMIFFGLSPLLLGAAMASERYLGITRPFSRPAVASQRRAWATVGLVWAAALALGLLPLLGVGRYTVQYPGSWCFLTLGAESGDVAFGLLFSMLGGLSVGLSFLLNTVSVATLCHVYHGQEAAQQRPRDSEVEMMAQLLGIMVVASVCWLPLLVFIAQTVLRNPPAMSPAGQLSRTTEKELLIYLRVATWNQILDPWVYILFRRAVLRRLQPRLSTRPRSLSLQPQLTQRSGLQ
The assay is classed as functional, cell-based.

The target of assay [12] is T5, Thromboxane A2 receptor. The assay is classed as functional, cell-based. The source holds these as a separate data set.
Note: assay procedure not described here.

Sequence of Prostaglandin G/H synthase 1 (P23219 whole entry): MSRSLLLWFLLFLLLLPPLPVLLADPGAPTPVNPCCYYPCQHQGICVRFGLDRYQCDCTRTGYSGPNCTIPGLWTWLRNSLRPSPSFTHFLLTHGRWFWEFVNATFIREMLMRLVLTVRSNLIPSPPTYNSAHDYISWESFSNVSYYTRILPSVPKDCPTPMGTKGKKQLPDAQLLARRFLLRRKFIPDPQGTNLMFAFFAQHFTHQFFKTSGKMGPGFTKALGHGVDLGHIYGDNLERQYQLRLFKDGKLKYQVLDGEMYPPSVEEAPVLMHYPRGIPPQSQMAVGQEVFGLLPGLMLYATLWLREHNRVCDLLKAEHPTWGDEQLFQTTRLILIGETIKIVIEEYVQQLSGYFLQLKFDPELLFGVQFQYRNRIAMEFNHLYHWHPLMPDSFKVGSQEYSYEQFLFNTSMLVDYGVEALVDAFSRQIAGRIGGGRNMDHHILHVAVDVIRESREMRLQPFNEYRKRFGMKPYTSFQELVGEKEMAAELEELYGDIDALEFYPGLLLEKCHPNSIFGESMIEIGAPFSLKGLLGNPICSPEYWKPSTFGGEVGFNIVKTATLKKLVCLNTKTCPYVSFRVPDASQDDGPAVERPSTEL
Sequence of 3',5'-cyclic-AMP phosphodiesterase 4A (P27815 whole entry): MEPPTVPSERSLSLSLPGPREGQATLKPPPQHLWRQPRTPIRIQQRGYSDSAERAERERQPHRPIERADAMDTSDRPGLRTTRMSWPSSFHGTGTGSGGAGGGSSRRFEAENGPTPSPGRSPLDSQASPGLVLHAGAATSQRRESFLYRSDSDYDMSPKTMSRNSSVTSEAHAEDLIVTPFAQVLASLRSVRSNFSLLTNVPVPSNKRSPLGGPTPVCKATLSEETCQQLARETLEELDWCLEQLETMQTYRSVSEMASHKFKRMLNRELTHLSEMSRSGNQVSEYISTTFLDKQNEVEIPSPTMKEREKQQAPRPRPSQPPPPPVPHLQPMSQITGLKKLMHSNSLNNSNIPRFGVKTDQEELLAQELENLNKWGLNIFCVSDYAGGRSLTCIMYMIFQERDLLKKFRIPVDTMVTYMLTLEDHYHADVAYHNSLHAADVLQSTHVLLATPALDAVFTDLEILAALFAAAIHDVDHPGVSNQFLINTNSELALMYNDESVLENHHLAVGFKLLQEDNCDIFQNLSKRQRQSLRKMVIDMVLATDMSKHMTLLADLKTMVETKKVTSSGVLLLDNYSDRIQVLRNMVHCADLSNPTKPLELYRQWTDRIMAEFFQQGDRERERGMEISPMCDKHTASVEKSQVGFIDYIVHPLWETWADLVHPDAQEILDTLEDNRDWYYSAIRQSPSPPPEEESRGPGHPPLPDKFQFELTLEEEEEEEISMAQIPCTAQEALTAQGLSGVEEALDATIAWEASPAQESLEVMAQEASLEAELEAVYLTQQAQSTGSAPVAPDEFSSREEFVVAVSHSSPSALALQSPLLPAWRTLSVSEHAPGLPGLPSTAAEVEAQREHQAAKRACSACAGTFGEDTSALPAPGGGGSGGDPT
Sequence of 5-hydroxytryptamine receptor 2B (P41595 whole entry): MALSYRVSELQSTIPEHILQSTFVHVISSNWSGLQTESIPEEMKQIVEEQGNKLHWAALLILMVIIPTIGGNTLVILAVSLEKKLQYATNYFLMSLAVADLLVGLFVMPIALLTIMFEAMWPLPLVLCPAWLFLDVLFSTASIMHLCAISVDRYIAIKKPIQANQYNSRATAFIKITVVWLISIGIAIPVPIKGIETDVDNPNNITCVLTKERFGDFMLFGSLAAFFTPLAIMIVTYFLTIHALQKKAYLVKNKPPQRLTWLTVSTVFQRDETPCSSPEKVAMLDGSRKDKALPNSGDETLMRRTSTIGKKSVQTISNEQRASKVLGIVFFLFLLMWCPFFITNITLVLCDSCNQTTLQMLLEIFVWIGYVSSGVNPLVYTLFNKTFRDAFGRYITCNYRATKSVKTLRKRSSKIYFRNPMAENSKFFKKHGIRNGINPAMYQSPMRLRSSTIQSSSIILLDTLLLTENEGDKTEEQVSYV
Sequence of D(3) dopamine receptor (P35462 whole entry): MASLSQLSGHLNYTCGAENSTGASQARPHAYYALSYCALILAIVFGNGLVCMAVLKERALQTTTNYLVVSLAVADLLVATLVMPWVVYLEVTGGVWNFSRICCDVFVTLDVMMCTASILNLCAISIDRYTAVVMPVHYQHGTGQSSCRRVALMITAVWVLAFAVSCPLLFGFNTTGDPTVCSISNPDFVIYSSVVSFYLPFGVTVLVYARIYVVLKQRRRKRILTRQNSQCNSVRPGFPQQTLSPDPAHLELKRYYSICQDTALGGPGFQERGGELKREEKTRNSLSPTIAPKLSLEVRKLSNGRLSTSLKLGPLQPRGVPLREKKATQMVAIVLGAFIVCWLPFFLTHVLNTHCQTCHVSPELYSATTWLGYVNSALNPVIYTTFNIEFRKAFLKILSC
Sequence of Bile salt export pump (O95342 whole entry): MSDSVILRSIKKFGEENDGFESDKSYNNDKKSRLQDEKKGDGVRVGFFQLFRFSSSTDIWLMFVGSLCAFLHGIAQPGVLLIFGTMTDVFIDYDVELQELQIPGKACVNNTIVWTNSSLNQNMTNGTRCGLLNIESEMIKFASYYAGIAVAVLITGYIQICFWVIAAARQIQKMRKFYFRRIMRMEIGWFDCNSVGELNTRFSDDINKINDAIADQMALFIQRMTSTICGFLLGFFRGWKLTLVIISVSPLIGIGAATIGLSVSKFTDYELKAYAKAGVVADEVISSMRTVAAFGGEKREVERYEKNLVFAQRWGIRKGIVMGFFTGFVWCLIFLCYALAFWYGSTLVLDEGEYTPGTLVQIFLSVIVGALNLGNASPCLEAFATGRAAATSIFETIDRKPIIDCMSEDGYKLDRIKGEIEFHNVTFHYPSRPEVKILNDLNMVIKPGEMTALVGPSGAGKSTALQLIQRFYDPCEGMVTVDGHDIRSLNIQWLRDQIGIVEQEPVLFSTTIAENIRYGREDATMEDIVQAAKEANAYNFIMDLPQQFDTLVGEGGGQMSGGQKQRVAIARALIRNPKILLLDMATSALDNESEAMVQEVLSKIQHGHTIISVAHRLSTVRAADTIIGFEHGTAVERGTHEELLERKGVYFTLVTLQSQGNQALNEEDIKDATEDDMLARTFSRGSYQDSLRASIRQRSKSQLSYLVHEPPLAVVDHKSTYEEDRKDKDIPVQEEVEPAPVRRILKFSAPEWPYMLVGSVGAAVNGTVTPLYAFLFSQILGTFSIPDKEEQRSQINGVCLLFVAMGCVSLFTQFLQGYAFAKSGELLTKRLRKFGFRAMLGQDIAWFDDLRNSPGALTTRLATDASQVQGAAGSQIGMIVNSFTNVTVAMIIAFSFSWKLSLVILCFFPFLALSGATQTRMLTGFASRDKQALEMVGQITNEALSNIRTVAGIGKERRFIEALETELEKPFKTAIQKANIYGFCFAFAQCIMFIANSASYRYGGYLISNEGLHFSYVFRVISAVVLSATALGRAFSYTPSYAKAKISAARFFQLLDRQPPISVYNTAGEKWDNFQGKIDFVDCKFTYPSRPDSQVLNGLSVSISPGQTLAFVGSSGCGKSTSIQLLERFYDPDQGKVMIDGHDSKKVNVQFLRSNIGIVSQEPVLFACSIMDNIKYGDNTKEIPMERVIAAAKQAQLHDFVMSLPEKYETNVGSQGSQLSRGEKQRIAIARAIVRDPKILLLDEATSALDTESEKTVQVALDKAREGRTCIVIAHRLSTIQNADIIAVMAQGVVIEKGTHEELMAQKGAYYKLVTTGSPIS
Sequence of Sodium-dependent dopamine transporter (Q01959 whole entry): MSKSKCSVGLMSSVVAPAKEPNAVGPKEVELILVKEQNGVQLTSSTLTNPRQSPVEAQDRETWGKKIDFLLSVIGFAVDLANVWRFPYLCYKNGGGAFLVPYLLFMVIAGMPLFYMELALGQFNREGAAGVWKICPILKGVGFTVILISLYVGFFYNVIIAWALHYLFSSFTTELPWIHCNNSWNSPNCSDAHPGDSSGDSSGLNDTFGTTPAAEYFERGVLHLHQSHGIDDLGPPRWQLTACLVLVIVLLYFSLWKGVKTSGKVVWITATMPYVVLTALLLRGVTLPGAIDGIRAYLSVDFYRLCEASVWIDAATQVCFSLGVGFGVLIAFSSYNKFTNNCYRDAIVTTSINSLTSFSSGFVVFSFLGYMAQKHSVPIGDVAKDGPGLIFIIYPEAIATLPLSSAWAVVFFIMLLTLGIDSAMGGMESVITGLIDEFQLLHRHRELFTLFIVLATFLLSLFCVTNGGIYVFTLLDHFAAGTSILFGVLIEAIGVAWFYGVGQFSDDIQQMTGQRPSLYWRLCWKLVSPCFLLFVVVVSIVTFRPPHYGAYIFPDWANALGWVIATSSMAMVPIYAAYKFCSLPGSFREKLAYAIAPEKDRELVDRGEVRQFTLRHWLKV
Sequence of D(1A) dopamine receptor (P21728 whole entry): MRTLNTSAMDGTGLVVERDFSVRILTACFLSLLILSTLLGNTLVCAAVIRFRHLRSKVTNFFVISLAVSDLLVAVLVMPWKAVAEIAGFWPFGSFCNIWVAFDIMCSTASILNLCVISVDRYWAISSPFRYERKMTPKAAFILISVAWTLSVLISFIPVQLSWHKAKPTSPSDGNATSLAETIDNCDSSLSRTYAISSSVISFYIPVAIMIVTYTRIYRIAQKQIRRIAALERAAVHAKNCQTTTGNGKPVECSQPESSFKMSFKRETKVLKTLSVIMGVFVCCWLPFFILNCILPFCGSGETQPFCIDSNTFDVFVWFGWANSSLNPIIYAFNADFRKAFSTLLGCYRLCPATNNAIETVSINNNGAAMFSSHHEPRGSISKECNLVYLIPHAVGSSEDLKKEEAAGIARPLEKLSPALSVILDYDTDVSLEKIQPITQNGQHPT

In the case of `O=C(O)COc1nn(Cc2ccccc2)c2ccccc12` [BENDAZAC], the AC50 on Bile salt export pump was 260 µM; in assay [1], over 30 µM; in [2], over 30 µM; at D(1A) dopamine receptor, over 30 µM; on D(3) dopamine receptor, over 30 µM; on Prothrombin it was over 30 µM. Also, the AC50 in [3], in assay [4], in [5], in assay [6], in assay [7] and in [8] was over 30 µM in each case. Further, the half-maximal activity concentration (AC50) was over 30 µM in assay [9], over 30 µM in assay [10], over 30 µM on Thromboxane A2 receptor [11] and over 3 µM at Thromboxane A2 receptor [12].

With `Cc1ccc([C@@H]2O[C@H](CO)[C@@H](O)[C@H](O)[C@H]2O)cc1Cc1ccc(-c2ccc(F)cc2)s1` [CANAGLIFLOZIN ANHYDROUS], the AC50 on Bile salt export pump was 38 µM; in assay [1], over 30 µM; in [2] it was over 30 µM; on D(1A) dopamine receptor, over 30 µM; at D(3) dopamine receptor, over 30 µM; on Prothrombin it was over 30 µM. Also, the AC50 in assay [3], in assay [4], in assay [5], in [6], in assay [7] and in [8] was over 30 µM each time. Moreover, the concentration at half-maximal activity (AC50) in [9] was over 30 µM; in [10] it was 3.54 µM; on Thromboxane A2 receptor [11], over 30 µM; at Thromboxane A2 receptor [12], over 30 µM.

As for `CNCCC=C1c2ccccc2CCc2ccccc21` [NORTRIPTYLINE], on Bile salt export pump, the AC50 is over 300 µM.

As for `COc1ccnc(C[S+]([O-])c2nc3ccc(OC(F)F)cc3[nH]2)c1OC` (centres undefined) [PANTOPRAZOLE], on Bile salt export pump, the AC50 turned out to be 190 µM.

On to `COc1ccc(Cc2nccc3cc(OC)c(OC)cc23)cc1OC` [PAPAVERINE], for which the AC50 on Bile salt export pump came to 46 µM.

As for `O=C1NC(=O)C(c2ccccc2)(c2ccccc2)N1` [PHENYTOIN], the half-maximal activity concentration (AC50) on Bile salt export pump was over 300 µM.

With `CC(C)C[C@H](CN)CC(=O)O` [PREGABALIN], the AC50 on Bile salt export pump is over 300 µM.

As to `CCOc1cc(CC(=O)N[C@@H](CC(C)C)c2ccccc2N2CCCCC2)ccc1C(=O)O` [REPAGLINIDE], the AC50 on Bile salt export pump came to 9.33 µM.

Consider `NC(=O)c1ncn([C@@H]2O[C@H](CO)[C@@H](O)[C@H]2O)n1` [RIBAVIRIN], for which the AC50 at Bile salt export pump is over 300 µM.

For the molecule `O=C(Nc1c(Cl)cncc1Cl)c1ccc(OC(F)F)c(OCC2CC2)c1` [ROFLUMILAST], the AC50 at Bile salt export pump amounted to 4 µM.

As to `CCCN(CCC)CCc1cccc2c1CC(=O)N2` [ROPINIROLE], the AC50 on Bile salt export pump was over 300 µM.

For `CCCN(CCc1cccs1)[C@H]1CCc2c(O)cccc2C1` [ROTIGOTINE], the AC50 at Bile salt export pump was 260 µM.

Regarding `CC[C@H]1OC(=O)[C@H](C)[C@@H](O[C@H]2C[C@@](C)(OC)[C@@H](O)[C@H](C)O2)[C@H](C)[C@@H](O[C@@H]2O[C@H](C)C[C@H](N(C)C)[C@H]2O)[C@](C)(O)C[C@@H](C)/C(=N\OCOCCOC)[C@H](C)[C@@H](O)[C@]1(C)O` [ROXITHROMYCIN], the half-maximal activity concentration (AC50) at Bile salt export pump was over 300 µM.

As for `CC(C)N(CCCCOCC(=O)NS(C)(=O)=O)c1cnc(-c2ccccc2)c(-c2ccccc2)n1` [SELEXIPAG], the AC50 on Bile salt export pump amounted to 5.7 µM.

For the molecule `CC(=O)S[C@@H]1CC2=CC(=O)CC[C@]2(C)[C@H]2CC[C@@]3(C)[C@@H](CC[C@@]34CCC(=O)O4)[C@H]12` [SPIRONOLACTONE], at Bile salt export pump, the AC50 turned out to be 26 µM.

In the case of `CCCCCCCCNC(C)C(O)c1ccc(SC(C)C)cc1` (centres undefined) [SULOCTIDIL], the half-maximal activity concentration (AC50) on Bile salt export pump was 64 µM; in assay [1], 6.75 µM; in assay [2], 3.41 µM; on D(1A) dopamine receptor, 11.3 µM; on D(3) dopamine receptor, 0.671 µM; on Prothrombin it was over 30 µM. Besides, the AC50 is 0.216 µM in [3]; over 30 µM in assay [4]; over 30 µM in [5]; over 30 µM in assay [6]; 20.9 µM in assay [7]; 15.5 µM in assay [8]. Moreover, the results for the AC50 (in [9]; in assay [10]; on Thromboxane A2 receptor [11]) were 1.39 µM, 2.21 µM and over 10 µM, respectively.

For `Cn1c(=O)c2[nH]cnc2n(C)c1=O` [THEOPHYLLINE], the AC50 is over 300 µM at Bile salt export pump; over 30 µM in [1]; over 30 µM in [2]; over 30 µM at D(1A) dopamine receptor; over 30 µM at D(3) dopamine receptor; over 30 µM on Prothrombin. Further, the half-maximal activity concentration (AC50) in [3], in assay [4], in assay [5], in [8], in assay [9] and in assay [10] was over 30 µM in each case. In addition, the AC50 on Thromboxane A2 receptor [11] and at Thromboxane A2 receptor [12] was over 30 µM in each case.

With `NCCc1ccc(O)cc1` [TYRAMINE], the AC50 was over 300 µM on Bile salt export pump; 22 µM in assay [1]; over 30 µM in [2]; over 30 µM on Prothrombin; 7.88 µM in assay [3]; over 30 µM in assay [4]. In addition, the AC50 in assay [5] is over 30 µM; in assay [6], over 30 µM; in assay [7] it was over 30 µM; in [8] it was over 3 µM; in [9], 22.2 µM; in [10], over 30 µM. Moreover, the AC50 on Thromboxane A2 receptor [11] and on Thromboxane A2 receptor [12] was over 30 µM in each case.

In the case of `Cc1cc(CC(=O)O)n(C)c1C(=O)c1ccc(Cl)cc1` [ZOMEPIRAC], the AC50 on Bile salt export pump is 72 µM.

Broadly, the AC50 is the concentration giving half of the maximal activity seen.
